In ChEMBL document CHEMBL4507273 (2021):

Assays:
[1] = biological target: T1, Kappa-type opioid receptor (Homo sapiens, UniProt P41145); assay: GPCRScan assay: inhibition of KOR; design: radioligand conc. used [nm] 0.6 – 1.2, parental cells stable HEK
[2] = biological target: Delta-type opioid receptor (Homo sapiens) (UniProt P41143); conditions: Compound concentration 10.0 uM
Rattus norvegicus = species on record: Rattus norvegicus; conditions: Compound concentration 10.0 uM
[3] = biological target: T2, Muscarinic acetylcholine receptor M1 (Homo sapiens) (UniProt P11229); conditions: Compound concentration 10.0 uM
T2 sequence (whole entry): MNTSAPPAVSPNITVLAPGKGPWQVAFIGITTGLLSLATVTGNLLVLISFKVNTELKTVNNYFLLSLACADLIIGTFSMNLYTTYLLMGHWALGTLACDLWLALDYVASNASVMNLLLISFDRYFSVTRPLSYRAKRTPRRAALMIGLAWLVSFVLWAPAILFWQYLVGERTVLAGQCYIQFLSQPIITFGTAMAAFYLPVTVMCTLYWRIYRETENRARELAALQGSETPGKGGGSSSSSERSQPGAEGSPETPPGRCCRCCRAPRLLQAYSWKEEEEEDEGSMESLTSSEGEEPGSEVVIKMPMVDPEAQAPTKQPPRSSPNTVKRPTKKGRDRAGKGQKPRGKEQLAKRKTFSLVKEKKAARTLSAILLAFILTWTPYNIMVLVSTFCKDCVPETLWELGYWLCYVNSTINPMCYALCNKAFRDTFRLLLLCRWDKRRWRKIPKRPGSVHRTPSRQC

[4] = biological target: Serine/threonine-protein kinase 26 (Homo sapiens) (UniProt Q9P289); assay: MST4(h) Eurofins Kinase panel; conditions: Compound concentration 1.0 uM
Sequence of Serine/threonine-protein kinase 26 (Homo sapiens) (Q9P289 2-416 limits assumed): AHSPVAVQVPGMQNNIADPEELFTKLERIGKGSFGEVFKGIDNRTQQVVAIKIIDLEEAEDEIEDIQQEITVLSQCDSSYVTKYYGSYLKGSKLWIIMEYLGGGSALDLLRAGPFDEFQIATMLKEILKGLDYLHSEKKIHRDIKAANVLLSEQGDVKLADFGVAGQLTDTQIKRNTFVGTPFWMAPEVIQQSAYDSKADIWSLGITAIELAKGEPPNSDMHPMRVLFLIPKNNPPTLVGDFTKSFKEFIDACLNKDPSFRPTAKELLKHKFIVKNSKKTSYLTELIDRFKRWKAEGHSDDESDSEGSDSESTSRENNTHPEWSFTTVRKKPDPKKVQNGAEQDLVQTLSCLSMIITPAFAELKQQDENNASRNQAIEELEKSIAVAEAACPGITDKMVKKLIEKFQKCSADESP

Mu-type opioid receptor = Mu-type opioid receptor (Homo sapiens, UniProt P35372); conditions: Compound concentration 10.0 uM
Sequence of Mu-type opioid receptor (P35372 whole entry): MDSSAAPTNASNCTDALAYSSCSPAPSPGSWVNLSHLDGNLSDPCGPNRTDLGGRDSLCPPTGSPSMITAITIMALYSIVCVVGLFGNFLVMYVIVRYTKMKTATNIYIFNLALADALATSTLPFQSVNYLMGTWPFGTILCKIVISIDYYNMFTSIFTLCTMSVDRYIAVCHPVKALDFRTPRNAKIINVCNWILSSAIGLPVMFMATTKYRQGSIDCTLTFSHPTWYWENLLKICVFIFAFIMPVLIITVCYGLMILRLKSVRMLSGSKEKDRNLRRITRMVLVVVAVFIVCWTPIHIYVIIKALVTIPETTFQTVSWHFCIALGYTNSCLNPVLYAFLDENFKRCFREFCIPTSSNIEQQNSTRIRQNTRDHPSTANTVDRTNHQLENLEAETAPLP

[5] = biological target: T3, Testis-specific serine/threonine-protein kinase 1 (Homo sapiens) (UniProt Q9BXA7); assay: TSSK1(h) Eurofins Kinase panel; conditions: Compound concentration 1.0 uM
T3 sequence (whole entry): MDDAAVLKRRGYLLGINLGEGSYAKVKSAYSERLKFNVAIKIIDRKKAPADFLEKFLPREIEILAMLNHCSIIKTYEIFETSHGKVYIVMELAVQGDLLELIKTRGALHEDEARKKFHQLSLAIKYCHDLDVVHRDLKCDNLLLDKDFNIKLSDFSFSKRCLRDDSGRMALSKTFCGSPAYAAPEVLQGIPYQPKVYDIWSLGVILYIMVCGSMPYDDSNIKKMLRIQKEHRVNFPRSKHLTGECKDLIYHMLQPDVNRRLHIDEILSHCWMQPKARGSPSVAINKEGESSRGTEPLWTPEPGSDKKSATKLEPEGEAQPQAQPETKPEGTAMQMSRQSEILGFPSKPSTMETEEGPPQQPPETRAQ

[6] = biological target: Serine/threonine-protein kinase PAK 6 (Homo sapiens) (UniProt Q9NQU5); assay: PAK6(h) Eurofins Kinase panel; conditions: Compound concentration 1.0 uM
[7] = biological target: PAS domain-containing serine/threonine-protein kinase (Homo sapiens) (UniProt Q96RG2); assay: PASK(h) Eurofins Kinase panel; conditions: Compound concentration 1.0 uM
[8] = biological target: 5-hydroxytryptamine receptor 2A (Homo sapiens, UniProt P28223); conditions: Compound concentration 10.0 uM
Sequence of 5-hydroxytryptamine receptor 2A (P28223 whole entry): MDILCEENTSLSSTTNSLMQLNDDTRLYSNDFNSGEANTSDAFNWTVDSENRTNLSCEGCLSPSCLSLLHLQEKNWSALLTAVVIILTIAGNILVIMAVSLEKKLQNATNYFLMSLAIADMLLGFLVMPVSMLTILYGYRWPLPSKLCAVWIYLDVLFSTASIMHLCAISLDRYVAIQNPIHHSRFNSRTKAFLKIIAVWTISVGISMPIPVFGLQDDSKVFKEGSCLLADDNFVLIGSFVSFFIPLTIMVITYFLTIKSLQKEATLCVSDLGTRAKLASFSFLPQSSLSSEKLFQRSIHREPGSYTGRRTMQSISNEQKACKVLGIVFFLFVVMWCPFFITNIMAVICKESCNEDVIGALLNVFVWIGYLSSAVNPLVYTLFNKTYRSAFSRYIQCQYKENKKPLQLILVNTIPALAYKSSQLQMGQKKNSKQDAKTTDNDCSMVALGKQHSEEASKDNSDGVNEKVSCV

[9] = biological target: BDNF/NT-3 growth factors receptor (Homo sapiens) (UniProt Q16620); assay: TrkB(h) Eurofins Kinase panel; conditions: Compound concentration 1.0 uM
Sequence of BDNF/NT-3 growth factors receptor (Homo sapiens) (Q16620 32-822 limits assumed): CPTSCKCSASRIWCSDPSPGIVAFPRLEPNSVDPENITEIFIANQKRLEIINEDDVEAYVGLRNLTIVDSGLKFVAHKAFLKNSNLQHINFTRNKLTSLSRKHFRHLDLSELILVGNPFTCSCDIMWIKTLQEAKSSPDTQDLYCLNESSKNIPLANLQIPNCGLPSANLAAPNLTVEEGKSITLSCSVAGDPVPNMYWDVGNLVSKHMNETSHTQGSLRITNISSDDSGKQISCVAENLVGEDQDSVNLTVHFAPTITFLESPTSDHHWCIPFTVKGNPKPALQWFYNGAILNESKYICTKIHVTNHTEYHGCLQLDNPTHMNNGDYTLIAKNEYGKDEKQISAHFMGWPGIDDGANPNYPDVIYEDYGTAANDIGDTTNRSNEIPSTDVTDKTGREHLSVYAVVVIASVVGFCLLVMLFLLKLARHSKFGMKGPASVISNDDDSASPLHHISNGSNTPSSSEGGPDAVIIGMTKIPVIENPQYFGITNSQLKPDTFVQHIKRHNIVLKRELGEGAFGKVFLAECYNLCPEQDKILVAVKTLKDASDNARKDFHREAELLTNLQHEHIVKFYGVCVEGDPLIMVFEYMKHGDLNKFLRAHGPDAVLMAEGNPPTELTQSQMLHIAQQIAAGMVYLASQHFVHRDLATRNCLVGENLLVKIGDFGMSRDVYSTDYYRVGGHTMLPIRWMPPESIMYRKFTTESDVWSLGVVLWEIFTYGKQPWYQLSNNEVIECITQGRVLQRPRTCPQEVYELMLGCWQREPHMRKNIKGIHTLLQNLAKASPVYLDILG

[10] = biological target: T1, Kappa-type opioid receptor; conditions: Compound concentration 10.0 uM
[11] = biological target: T4, Alpha-2B adrenergic receptor (Homo sapiens) (UniProt P18089); conditions: Compound concentration 10.0 uM
T4 sequence (whole entry): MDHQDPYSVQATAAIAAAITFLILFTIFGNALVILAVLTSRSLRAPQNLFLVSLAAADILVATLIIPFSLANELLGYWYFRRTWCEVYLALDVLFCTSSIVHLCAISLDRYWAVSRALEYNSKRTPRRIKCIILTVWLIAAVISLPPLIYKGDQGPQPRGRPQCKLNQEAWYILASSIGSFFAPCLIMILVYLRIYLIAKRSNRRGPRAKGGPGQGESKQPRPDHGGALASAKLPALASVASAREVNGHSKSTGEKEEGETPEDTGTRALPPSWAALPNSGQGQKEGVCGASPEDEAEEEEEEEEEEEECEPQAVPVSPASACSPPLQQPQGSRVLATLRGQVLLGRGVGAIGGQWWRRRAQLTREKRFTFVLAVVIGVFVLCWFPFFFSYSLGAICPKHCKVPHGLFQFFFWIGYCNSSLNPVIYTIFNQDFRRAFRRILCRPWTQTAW

[12] = biological target: 5-hydroxytryptamine receptor 2B (Homo sapiens, UniProt P41595); conditions: Compound concentration 10.0 uM
Sequence of 5-hydroxytryptamine receptor 2B (P41595 whole entry): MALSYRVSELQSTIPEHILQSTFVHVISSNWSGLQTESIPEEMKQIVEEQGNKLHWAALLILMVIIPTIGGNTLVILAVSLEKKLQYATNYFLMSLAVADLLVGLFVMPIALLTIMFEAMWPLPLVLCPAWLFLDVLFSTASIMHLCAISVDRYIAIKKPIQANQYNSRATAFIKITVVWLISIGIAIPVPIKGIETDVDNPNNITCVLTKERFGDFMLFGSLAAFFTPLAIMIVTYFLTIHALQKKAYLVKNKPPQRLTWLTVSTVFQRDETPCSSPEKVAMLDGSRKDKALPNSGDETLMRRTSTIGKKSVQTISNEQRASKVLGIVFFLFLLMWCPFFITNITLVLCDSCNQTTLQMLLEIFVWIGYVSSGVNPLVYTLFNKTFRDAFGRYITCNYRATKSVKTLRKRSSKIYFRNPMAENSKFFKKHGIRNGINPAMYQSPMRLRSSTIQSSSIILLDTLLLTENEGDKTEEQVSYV

[13] = biological target: Cyclin-dependent kinase 1/cyclin B (Homo sapiens) (UniProt P06493+P14635+Q8WWL7+O95067); assay: CDK1/cyclinB(h) Eurofins Kinase panel; type: protein-complex assay; conditions: Compound concentration 1.0 uM
[14] = biological target: T5, 5-hydroxytryptamine receptor 2C (Homo sapiens) (UniProt P28335); conditions: Compound concentration 10.0 uM
T5 sequence (whole entry): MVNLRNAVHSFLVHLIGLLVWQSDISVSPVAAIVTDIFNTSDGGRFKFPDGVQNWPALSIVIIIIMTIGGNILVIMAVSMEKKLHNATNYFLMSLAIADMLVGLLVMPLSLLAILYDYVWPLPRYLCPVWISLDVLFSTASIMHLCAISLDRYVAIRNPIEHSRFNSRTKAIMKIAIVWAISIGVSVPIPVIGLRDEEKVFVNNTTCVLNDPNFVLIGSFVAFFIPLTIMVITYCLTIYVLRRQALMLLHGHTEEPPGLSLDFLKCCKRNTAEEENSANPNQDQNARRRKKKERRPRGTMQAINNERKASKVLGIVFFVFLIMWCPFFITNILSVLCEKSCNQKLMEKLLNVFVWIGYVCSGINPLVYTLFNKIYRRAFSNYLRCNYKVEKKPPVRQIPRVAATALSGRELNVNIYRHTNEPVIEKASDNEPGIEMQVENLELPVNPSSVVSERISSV

[15] = biological target: Tyrosine-protein kinase Lyn (Homo sapiens) (UniProt P07948); assay: Lyn(h) Eurofins Kinase panel; conditions: Compound concentration 1.0 uM
[16] = biological target: Insulin-like growth factor 1 receptor (Homo sapiens) (UniProt P08069); assay: IGF-1R(h) Eurofins Kinase panel; conditions: Compound concentration 1.0 uM
[17] = biological target: Proto-oncogene tyrosine-protein kinase receptor Ret (Homo sapiens) (UniProt P07949); assay: Ret(h) Eurofins Kinase panel; conditions: Compound concentration 1.0 uM
[18] = biological target: Dual specificity tyrosine-phosphorylation-regulated kinase 1A (Homo sapiens) (UniProt Q13627); assay: DYRK1A(h) Eurofins Kinase panel; conditions: Compound concentration 1.0 uM
[19] = biological target: Tyrosine-protein kinase SYK (Homo sapiens) (UniProt P43405); assay: Syk(h) Eurofins Kinase panel; conditions: Compound concentration 1.0 uM
Histamine H2 receptor = Histamine H2 receptor (Homo sapiens, UniProt P25021); conditions: Compound concentration 10.0 uM
Sequence of Histamine H2 receptor (P25021 whole entry): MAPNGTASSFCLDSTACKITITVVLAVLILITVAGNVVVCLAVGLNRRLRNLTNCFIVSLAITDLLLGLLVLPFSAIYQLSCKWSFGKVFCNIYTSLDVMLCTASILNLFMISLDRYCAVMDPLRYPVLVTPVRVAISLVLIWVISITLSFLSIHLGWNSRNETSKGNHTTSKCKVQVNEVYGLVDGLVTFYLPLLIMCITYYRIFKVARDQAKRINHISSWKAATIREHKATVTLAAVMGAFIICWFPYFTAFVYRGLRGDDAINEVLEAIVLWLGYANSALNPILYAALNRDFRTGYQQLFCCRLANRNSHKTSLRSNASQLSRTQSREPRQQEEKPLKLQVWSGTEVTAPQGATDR

[20] = biological target: Leukocyte tyrosine kinase receptor (Homo sapiens) (UniProt P29376); assay: LTK(h) Eurofins Kinase panel; conditions: Compound concentration 1.0 uM
Sequence of Leukocyte tyrosine kinase receptor (Homo sapiens) (P29376 whole entry): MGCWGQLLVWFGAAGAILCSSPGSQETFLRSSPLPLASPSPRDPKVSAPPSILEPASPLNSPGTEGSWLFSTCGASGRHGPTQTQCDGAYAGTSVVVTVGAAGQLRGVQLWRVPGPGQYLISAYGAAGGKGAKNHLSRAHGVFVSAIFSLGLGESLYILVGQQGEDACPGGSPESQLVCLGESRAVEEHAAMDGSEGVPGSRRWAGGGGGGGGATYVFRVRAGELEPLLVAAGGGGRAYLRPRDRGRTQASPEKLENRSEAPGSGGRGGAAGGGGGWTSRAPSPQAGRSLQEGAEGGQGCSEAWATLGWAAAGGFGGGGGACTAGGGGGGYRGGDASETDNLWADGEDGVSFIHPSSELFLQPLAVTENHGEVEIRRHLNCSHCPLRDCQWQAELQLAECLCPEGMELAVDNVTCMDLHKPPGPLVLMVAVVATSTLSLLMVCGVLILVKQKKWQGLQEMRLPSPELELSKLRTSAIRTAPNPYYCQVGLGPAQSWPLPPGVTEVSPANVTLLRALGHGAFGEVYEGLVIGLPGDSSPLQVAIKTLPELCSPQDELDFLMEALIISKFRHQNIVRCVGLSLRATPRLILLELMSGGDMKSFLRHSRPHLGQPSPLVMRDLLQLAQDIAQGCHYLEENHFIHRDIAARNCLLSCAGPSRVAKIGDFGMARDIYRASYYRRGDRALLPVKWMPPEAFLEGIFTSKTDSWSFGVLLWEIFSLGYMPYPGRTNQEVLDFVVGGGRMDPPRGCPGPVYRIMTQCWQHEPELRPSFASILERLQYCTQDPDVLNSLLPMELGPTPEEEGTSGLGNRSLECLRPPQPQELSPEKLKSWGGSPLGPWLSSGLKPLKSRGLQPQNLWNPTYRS

T1 sequence (P41145 whole entry): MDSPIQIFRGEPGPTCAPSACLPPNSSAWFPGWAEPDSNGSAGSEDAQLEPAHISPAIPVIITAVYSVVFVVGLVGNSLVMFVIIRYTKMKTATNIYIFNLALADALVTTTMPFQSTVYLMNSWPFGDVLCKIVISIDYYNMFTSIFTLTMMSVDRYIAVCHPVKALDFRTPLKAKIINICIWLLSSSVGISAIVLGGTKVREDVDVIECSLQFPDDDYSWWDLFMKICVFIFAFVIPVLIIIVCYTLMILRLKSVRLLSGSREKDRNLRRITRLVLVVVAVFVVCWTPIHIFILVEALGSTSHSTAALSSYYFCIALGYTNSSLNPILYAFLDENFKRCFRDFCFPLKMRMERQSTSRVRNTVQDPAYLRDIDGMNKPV
Sequence of Delta-type opioid receptor (Homo sapiens) (P41143 whole entry): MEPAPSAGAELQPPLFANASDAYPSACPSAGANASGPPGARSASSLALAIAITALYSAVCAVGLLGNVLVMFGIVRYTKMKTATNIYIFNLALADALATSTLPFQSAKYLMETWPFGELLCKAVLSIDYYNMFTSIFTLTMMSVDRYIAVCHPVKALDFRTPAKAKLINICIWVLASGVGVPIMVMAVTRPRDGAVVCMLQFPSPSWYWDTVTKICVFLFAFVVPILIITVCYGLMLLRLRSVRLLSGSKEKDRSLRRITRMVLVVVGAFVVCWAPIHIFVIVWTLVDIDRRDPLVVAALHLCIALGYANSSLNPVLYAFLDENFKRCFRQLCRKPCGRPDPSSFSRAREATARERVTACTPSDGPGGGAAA

SMILES: CNCc1ccccc1-c1csc([C@H](C)Nc2nc(C)nc3cc(OC)c(OC)cc23)c1 [BAY-294]
- Ki ([1]; read-out: Ki): 841 nM
- Ki ([1]; read-out: pKi (converted)): 822 nM
- inhibition [2]: 10.5%

SMILES: CNCc1ccccc1-c1csc([C@@H](C)Nc2nc(C)nc3cc(OC)c(OC)cc23)c1 [BAY-293]
- inhibition (Rattus norvegicus): 13.1%
- inhibition [3]: 94%
- % residual kinase activity [4]: 88%
- inhibition (Mu-type opioid receptor): 93%
- % residual kinase activity [5]: 79%
- % residual kinase activity [6]: 88%
- % residual kinase activity [7]: 84%
- inhibition [8]: 110%
- % residual kinase activity [9]: 79%
- inhibition [10]: 105%
- inhibition [11]: 85%
- inhibition [12]: 100%
- % residual kinase activity [13]: 87%
- inhibition [14]: 104%
- % residual kinase activity [15]: 88%
- % residual kinase activity [16]: 74%
- % residual kinase activity [17]: 81%
- % residual kinase activity [18]: 68%
- % residual kinase activity [19]: 79%
- inhibition (Histamine H2 receptor): 99%
- % residual kinase activity [20]: 75%
